Experimental data reported in patent publication US10045983B2, “Heteroaryl pyridone and aza-pyrodine compounds” (Genentech, Inc., priority 2011, dated 2018).
Like-named read-outs stand apart in the source and are kept apart here.

Assay: CD69 Whole Blood Assay (CD69 Hu Blood FACS)
Format: cell-based, human
Conditions: Lymphocyte
From the text: A CD69 Whole Blood Assay can be conducted on Formula I compounds to determine the ability of compounds to inhibit the production of CD69 by B lymphocytes in human whole blood activated by crosslinking surface IgM with goat F(ab′)2 anti-human IgM (Example 907). CD69 is a type II C-type lectin involved in lymphocyte migration and cytokine secretion. CD69 expression represents one of the earliest available indicators of leukocyte activation and its rapid induction occurs through transcriptional activation (Vazquez et al (2009) Jour. of Immunology Published Oct. 19, 2009, doi:10.4049/jimmunol.0900839). Concentration-dependent inhibition of antigen receptor stimulation by selective Btk inhibitors induces cell surface expression of the lymphocyte activation marker CD69 (Honigberg et al (2010) Proc. Natl. Acad. Sci. 107(29):13075-13080). Thus, CD69 inhibition by selective Btk inhibitors may be correlated with therapeutic efficacy of certain B-cell disorders.

[1] = human whole blood, anti-IgM activated B lymphocytes, FACS, IC70, Table 1, read-out: CD69 Hu Blood FACS IC70

Compound | IC70 [1] [µM] | IC70 (Homo sapiens, read-out: CD69 Hu Blood FACS IC70 (μM)) [µM]
CN1CCn2nc(Nc3cc(-c4ccnc(N5CCn6c(cc7c6CC(C)(C)C7)C5=O)c4CO)cn(C)c3=O)cc2C1 [Example 141, 2-[3′-Hydroxymethyl-1-methyl-5-(5-methyl-4,5,6,7-tetrahydro-pyrazolo[1,5-a]pyrazin-2-ylamino)-6-oxo-1,6-dihydro-[3,4′]bipyridinyl-2′-yl]-7,7-dimethyl-3,4,7,8-tetrahydro-2H,6H-cyclopenta[4,5]pyrrolo[1,2-a]pyrazin-1-one] | 0.0266 | 
Cn1cc(-c2ccnc(N3CCn4c(cc5c4CCCC5)C3=O)c2CO)cc(Nc2ccncn2)c1=O [Example 142, 2-[3′-Hydroxymethyl-1-methyl-6-oxo-5-(pyrimidin-4-ylamino)-1,6-dihydro-[3,4′]bipyridinyl-2′-yl]-3,4,6,7,8,9-hexahydro-2H-pyrazino[1,2-a]indol-1-one] | 2.1 | 
Cn1cc(-c2ccnc(N3CCc4c(sc5c4CC(C)(C)C5)C3=O)c2CO)cc(Nc2ccncn2)c1=O [Example 143, 6-[3′-Hydroxymethyl-1-methyl-6-oxo-5-(pyrimidin-4-ylamino)-1,6-dihydro-[3,4′]bipyridinyl-2′-yl]-2,2-dimethyl-2,3,5,6-tetrahydro-1H,4H-8-thia-6-aza-cyclopenta[a]inden-7-one] | 0.0309 | 
Cn1cc(-c2ccnc(N3CCn4c(cc5c4CC(C)(C)C5)C3=O)c2CO)cc(Nc2ccncn2)c1=O [Example 144, 2-[3′-Hydroxymethyl-1-methyl-6-oxo-5-(pyrimidin-4-ylamino)-1,6-dihydro-[3,4′]bipyridinyl-2′-yl]-7,7-dimethyl-3,4,7,8-tetrahydro-2H,6H-cyclopenta-[4,5]pyrrolo[1,2-a]pyrazin-1-one] | 0.106 | 
C[C@H]1CN(C2COC2)CCN1c1ccc(Nc2cc(-c3ccnc(N4CCc5c(sc6c5CC(C)(C)C6)C4=O)c3CO)cn(C)c2=O)nc1 [Example 145, 6-{3′-Hydroxymethyl-1-methyl-5-[5-((S)-2-methyl-4-oxetan-3-yl-piperazin-1-yl)-pyridin-2-ylamino]-6-oxo-1,6-dihydro-[3,4′]bipyridinyl-2′-yl}-2,2-dimethyl-2,3,5,6-tetrahydro-1H,4H-8-thia-6-aza-cyclopenta[a]inden-7-one] | 0.0147 | 
Cn1cc(-c2ccnc(N3CCn4c5c(c(F)c4C3=O)CCCC5)c2CO)cc(Nc2ccncn2)c1=O [Example 146, 10-Fluoro-2-(3-(hydroxymethyl)-4-(1-methyl-6-oxo-5-(pyrimidin-4-ylamino)-1,6-dihydropyridin-3-yl)pyridin-2-yl)-3,4,6,7,8,9-hexahydropyrazino[1,2-a]indol-1(2H)-one] | 0.0856 | 
CN1CCn2nc(Nc3cc(-c4ccnc(N5CCc6c(cc7n6CCCC7)C5=O)c4CO)cn(C)c3=O)cc2C1 [Example 147, 2-(3-(Hydroxymethyl)-4-(1-methyl-5-(5-methyl-4,5,6,7-tetrahydro-pyrazolo[1,5-a]pyrazin-2-ylamino)-6-oxo-1,6-dihydropyridin-3-yl)pyridin-2-yl)-3,4,6,7,8,9-hexahydropyrido[3,4-b]indolizin-1(2H)-one] | 0.32 | 
C[C@H]1CN(C2COC2)CCN1c1ccc(Nc2cc(-c3ccnc(N4CCn5c(cc6c5CCCC6)C4=O)c3C3(O)COC3)cn(C)c2=O)nc1 [Example 148, (S)-2-(3-(3-Hydroxyoxetan-3-yl)-4-(1-methyl-5-(5-(2-methyl-4-(oxetan-3-yl)piperazin-1-yl)pyridin-2-ylamino)-6-oxo-1,6-dihydropyridin-3-yl)pyridin-2-yl)-3,4,6,7,8,9-hexahydropyrazino[1,2-a]indol-1(2H)-one] | 5 | 
C[C@H]1CN(C2COC2)CCN1c1ccc(Nc2cc(-c3ccnc(N4CCc5c(cc6n5CCCC6)C4=O)c3CO)cn(C)c2=O)nc1 [Example 149, 2-{3′-Hydroxymethyl-1-methyl-5-[5-((S)-2-methyl-4-oxetan-3-yl-piperazin-1-yl)-pyridin-2-ylamino]-6-oxo-1,6-dihydro-[3,4′]bipyridinyl-2′-yl}-2,3,5,6,7,8-hexahydro-4H-2,4b-diaza-fluoren-1-one] | 0.0454 | 
CN1CCn2nc(Nc3cc(-c4cncc(N5CCn6c(cc7c6CC(C)(C)C7)C5=O)c4CO)cn(C)c3=O)cc2C1 [Example 150, 2-[4-Hydroxymethyl-1′-methyl-5′-(5-methyl-4,5,6,7-tetrahydro-pyrazolo[1,5-a]pyrazin-2-ylamino)-6′-oxo-1′,6′-dihydro-[3,3′]bipyridinyl-5-yl]-7,7-dimethyl-3,4,7,8-tetrahydro-2H,6H-cyclopenta[4,5]pyrrolo[1,2-a]pyrazin-1-one] | 0.0316 | 
C[C@@H]1CN(C2COC2)CCN1c1ccc(Nc2cc(-c3ccnc(-n4ccn5c6c(cc5c4=O)CCCC6)c3CO)cn(C)c2=O)nc1 [Example 151, 2-{3′-Hydroxymethyl-1-methyl-5-[5-((R)-2-methyl-4-oxetan-3-yl-piperazin-1-yl)-pyridin-2-ylamino]-6-oxo-1,6-dihydro-[3,4′]bipyridinyl-2′-yl}-6,7,8,9-tetrahydro-2H-pyrazino[1,2-a]indol-1-one] | 0.0455 | 
Cn1cc(-c2ccnc(N3CCn4c(cc5c4CCCC5)C3=O)c2CO)cc(Nc2ccc(N3[C@@H]4CC[C@H]3CN(C3COC3)C4)cn2)c1=O [Example 152, 2-{3′-Hydroxymethyl-1-methyl-5-[5-((1 S,5R)-3-oxetan-3-yl-3,8-diaza-bicyclo[3.2.1]oct-8-yl)-pyridin-2-ylamino]-6-oxo-1,6-dihydro-[3,4′]bipyridinyl-2′-yl}-3,4,6,7,8,9-hexahydro-2H-pyrazino[1,2-a]indol-1-one] |  | 0.188
C[C@@H]1CN(C2COC2)CCN1c1ccc(Nc2cc(-c3ccnc(N4CCn5c(cc6c5CC(C)(C)C6)C4=O)c3CO)cn(C)c2=O)nc1 [Example 153, 2-{3′-Hydroxymethyl-1-methyl-5-[5-((R)-2-methyl-4-oxetan-3-yl-piperazin-1-yl)-pyridin-2-ylamino]-6-oxo-1,6-dihydro-[3,4′]bipyridinyl-2′-yl}-7,7-dimethyl-3,4,7,8-tetrahydro-2H,6H-cyclopenta[4,5]pyrrolo[1,2-a]pyrazin-1-one] | 0.0238 | 
C[C@@H]1CN(C2COC2)CCN1c1ccc(Nc2cc(-c3ccnc(-n4ncc5c6c(sc5c4=O)CCCC6)c3CO)cn(C)c2=O)nc1 [Example 154, 3-{3′-Hydroxymethyl-1-methyl-5-[5-((R)-2-methyl-4-oxetan-3-yl-piperazin-1-yl)-pyridin-2-ylamino]-6-oxo-1,6-dihydro-[3,4′]bipyridinyl-2′-yl}-6,7,8,9-tetrahydro-3H-benzo[4,5]thieno[2,3-d]pyridazin-4-one] | 0.0374 | 
C[C@@H]1CN(c2ccc(Nc3cc(-c4ccnc(N5CCc6c(cc7n6CCCC7)C5=O)c4CO)cn(C)c3=O)nc2)[C@@H](C)CN1C1COC1 [Example 155, 2-{5-[5-((2S,5R)-2,5-Dimethyl-4-oxetan-3-yl-piperazin-1-yl)-pyridin-2-ylamino]-3′-hydroxymethyl-1-methyl-6-oxo-1,6-dihydro-[3,4′]bipyridinyl-2′-yl}-2,3,5,6,7,8-hexahydro-4H-2,4b-diaza-fluoren-1-one] | 0.0454 | 
C[C@@H]1CN(c2ccc(Nc3cc(-c4ccnc(N5CCn6c7c(c(F)c6C5=O)CCCC7)c4CO)cn(C)c3=O)nc2)[C@@H](C)CN1C1COC1 [Example 156, 2-{5-[5-((2S,5R)-2,5-Dimethyl-4-oxetan-3-yl-piperazin-1-yl)-pyridin-2-ylamino]-3′-hydroxymethyl-1-methyl-6-oxo-1,6-dihydro-[3,4′]bipyridinyl-2′-yl}-10-fluoro-3,4,6,7,8,9-hexahydro-2H-pyrazino[1,2-a]indol-1-one] | 0.0145 | 
C[C@@H]1CN(c2ccc(Nc3cc(-c4cncc(N5CCn6c(cc7c6CCCC7)C5=O)c4CO)cn(C)c3=O)nc2)[C@@H](C)CN1C1COC1 [Example 157] | 0.0298 | 
C[C@@H]1CN(c2ccc(Nc3cc(-c4ccnc(N5CCn6c(cc7c6CC(C)(C)C7)C5=O)c4CO)cn(C)c3=O)nc2)[C@@H](C)CN1C1COC1 [Example 158, 2-{5-[5-((2S,5R)-2,5-Dimethyl-4-oxetan-3-yl-piperazin-1-yl)-pyridin-2-ylamino]-3′-hydroxymethyl-1-methyl-6-oxo-1,6-dihydro-[3,4′]bipyridinyl-2′-yl}-7,7-dimethyl-3,4,7,8-tetrahydro-2H,6H-cyclopenta[4,5]pyrrolo[1,2-a]pyrazin-1-one] | 0.02 | 
C[C@@H]1CN(c2ccc(Nc3cc(-c4ccnc(-n5ncc6c7c(sc6c5=O)CCCC7)c4CO)cn(C)c3=O)nc2)[C@@H](C)CN1C1COC1 [Example 159, 3-{5-[5-((2S, 5R)-2,5-Dimethyl-4-oxetan-3-yl-piperazin-1-yl)-pyridin-2-ylamino]-3′-hydroxymethyl-1-methyl-6-oxo-1,6-dihydro-[3,4′]bipyridinyl-2′-yl}-6,7,8,9-tetrahydro-3H-benzo[4,5]thieno[2,3-d]pyridazin-4-one] | 0.082 | 
C[C@@H]1CN(c2ccc(Nc3cc(-c4ccnc(-n5ccn6c7c(cc6c5=O)CCCC7)c4CO)cn(C)c3=O)nc2)[C@@H](C)CN1C1COC1 [Example 160, 2-{5-[5-((2S, 5R)-2,5-Dimethyl-4-oxetan-3-yl-piperazin-1-yl)-pyridin-2-ylamino]-3′-hydroxymethyl-1-methyl-6-oxo-1,6-dihydro-[3,4′]bipyridinyl-2′-yl}-6,7,8,9-tetrahydro-2H-pyrazino[1,2-a]indol-1-one] | 0.0547 | 
CC[C@H]1CN(C2COC2)CCN1c1ccc(Nc2cc(-c3ccnc(N4CCc5c(cc6n5CCCC6)C4=O)c3CO)cn(C)c2=O)nc1 [Example 161, 2-{5-[5-((S)-2-Ethyl-4-oxetan-3-yl-piperazin-1-yl)-pyridin-2-ylamino]-3′-hydroxymethyl-1-methyl-6-oxo-1,6-dihydro-[3,4′]bipyridinyl-2′-yl}-2,3,5,6,7,8-hexahydro-4H-2,4b-diaza-fluoren-1-one] | 0.064 | 
